Assay results as given in US10898504B2, “Substituted nucleoside analogues for use as PRMT5 inhibitors” (Janssen Pharmaceutica NV, priority 2016, dated 2021).
Values joined by “and” are separate entries in the source; they are usually repeats but may differ in a detail not shown here. Equal entries are not always repeated.

Assays:
[1] = biological target: T1, PRMT5-MEP50 enzyme (Homo sapiens, UniProt O14744); assay: In vitro assay (Assay 1): PRMT5-MEP50 high throughput mass spectrometer assay, inhibition of SAH formation; assay type: biochemical; details: individual measurements shown, read-out: pIC50 Assay 1 (converted)
T1 construct: One virus expresses full length human PRMT5 with Flag-tag at N-terminus
From the text: EXPERIMENTAL PROCEDURES IN VITRO ASSAY (ASSAY 1)
PRMT5-MEP50 enzyme was purchased from Charles River (Argenta). The enzyme complex was produced in insect cells (Sf9) infected simultaneously with two baculoviruses. One virus expresses full length human PRMT5 with Flag-tag at N-terminus, the second virus expresses full length MEP50 with His6-TEV cleavage at N-terminus. The protein was affinity purified using anti-Flag (M2) beads eluted with 3×FLAG peptide, followed by His-Select eluted with 0.5M imidazole. Eluted protein was then dialysed against tris-buffered saline (TBS) (pH 8.0) containing 20% glycerol and 3 mM dithiothreitol (DTT).
Full-length untagged human recombinant histone H2A (residues 1-130, Genbank Accession #NM_021052, MW=14.1 kDa) expressed in E. coli was purchased from Reaction Biology Corporation, Cat #HMT-11-146. Reagents used for making reaction buffer or stopping reaction were purchased including Tris base (Sigma Cat #T-1503), NaCl (Sigma Cat #RGF-3270), MgCl2 (Sigma Cat #M0250), DTT (Invitrogen Cat #15508-013) and Formic Acid (Riedel deHaen, Cat #33015)
High Throughput Mass Spectrometer Assay
PRMT5 catalyzes the sequential methylations of the terminal nitrogen atoms on the guanidine groups of arginine residues within proteins using co-substrate S-adenosyl-L-methionine (AdoMet, SAM), forming mono-methyl (MMA), symmetric-dimethyl arginine (sDMA) and S-adenosyl-L-homocysteine (AdoHcy, SAH). The enzyme activity was determined by following the product SAH formation using high throughput mass spectrometry (Agilent Rapidfire 300 System coupled to a Sciex 4000 series QTrapm triple-quad MS/MS). The reaction buffer was 20 mM Tris-HC, pH 8.5, 50 mM NaCl, 5 mM MgCl2 and 1 mM DTT. The reaction activity was stopped using 1% formic acid (final concentration).
The IC50 Studies were performed using eleven point dosing series made for each compound by serially diluted 1:2 in dimethyl sulfoxide (DMSO), with point 12 being a DMSO control. Compounds were first spotted to plates, and followed by addition of 2 μM SAM and 0.6 μM H2A (histone H2A) solution mixture. The same volume of enzyme solution was added to initiate the enzymatic reactions. The final concentrations of the reaction are at 1 μM SAM, 0.3 μM H2A and 10 nM enzyme. The reaction was incubated at 30° C. for 60 minutes (min) and then quenched by addition of formic acid to a final concentration of 1%. The inhibitions of SAH formation in the presence of compounds were calculated as a percentage of the control relative to the uninhibited reaction as a function of inhibitor concentration. The data were fit as follows: Y=Bottom+(Top−Bottom)/(1+10^((log IC50−X)*h))
where IC50 is the inhibitor concentration (same unit as X) at 50% inhibition and h is the Hill slope. Y is percent of inhibition, X is log of compound concentration. Bottom and Top are the plateaus in same units as Y.

[2] = tested on: A549 cells; assay: PD assay (Assay 2): inhibition of nuclear symmetric Arginine dimethylation (SYM10 immunohistochemistry) in A549 cells; assay type: cell-based; details: individual measurements shown; for IC50: Homo sapiens, A549, PD assay in A549 cells, read-out: pIC50 Assay 2 (converted); for pIC50 Assay 2: PD assay in A549 cells
Protocol: EXPERIMENTAL PROCEDURE PD ASSAY (ASSAY 2)
A549 cells (ATCC, Cat #CCL-185) were cultured in Dulbecco's Modified Eagle's Medium (DMEM) (Sigma, Cat #D5796), supplemented with 10% Fetal Calf Serum (FCS)(HyClone™, Cat #SV30160.03), 100 mM Sodium Pyruvate (Sigma, Cat #S8636), 200 mM L-Glutamine (Sigma, Cat #G7513) and 50 mg/mL Gentamycing (Gibco, Cat #15750-037).
Reagents used for buffers were purchased: Dulbecco's phosphate buffered saline (DPBS) without Ca/Mg (Sigma, Cat #D8537), phosphate buffered saline (PBS) 10× (Roche, Cat #11 666 789 001), Formalin solution 10% (Sigma, HT50-1-128-4L), MeOH 100% (Sigma, Cat #32213-2.5L), Triton X-100 (Acros, Cat #215680010), Bovine Serum Albumin (BSA) (Sigma, Cat #A2153), Alexa fluor 488 goat anti-rabbit antibody (Life Technologies, Cat #A11034), HCS CellMask Deep Red Stain (Life Technologies, Cat #H32721), Hoechst Stain (Life Technologies, Cat #33258), Anti-dimethyl-Arginine, sym (SYM10) antibody (Millipore, 07-412).
Immunohistochemistry Procedure
Cells were plated at 400 cells/40 μL/well in 384 well black plates μclear bottom (Perkin Elmer) and overnight incubated at 37° C., 5% CO2. The IC50 Studies were performed using nine point dosing series ranging from 10 μM to […] for each compound. 80 nL of the respective dilution of the compounds was added using the Labcyte POD 810 (Labcyte) reaching a final DMSO concentration of 0.2% in cell culture. After an incubation period of 48 h at 37° C. and 5% CO2, cells were fixed in 10% formalin solution for 15 min at r.t. and 20 min in ice-cold MeOH, after which they were washed 3× in DPBS. Subsequently, the cells were blocked for 1 h in blocking buffer (PBS+1% BSA and 0.5% Triton X-100) and incubated overnight at 4° C. with the SYM10 antibody diluted 1/2000 in blocking buffer. The cells were washed 3× with washing buffer (PBS+0.1% Triton X-100) and incubated with the Alexa fluor 488 goat anti-rabbit antibody diluted 1/200 in blocking buffer for 1 h at r.t. Subsequently, they were washed 3× with washing buffer and incubated for 30 min at r.t. with PBS containing a 1/5000 dilution of Hoechst Stain and a 1/5000 dilution of the HCS CellMask Deep Red Stain. After a final wash with PBS, the plates were imaged using the 10×W lens of the Opera® system (Perkin Elmer Life Sciences) using following settings (values in nm):
In the above equations, the following variable names are use: […]
In the above equations, the following controls were used for normalization: […]
Low control: minimum level of symmetrically dimethylated Arginines (cells treated with reference compound at 10 μM).
High control: maximum level of symmetrically dimethylated Arginines (DMSO treated cells).
IC50 and pIC50 (−log IC50) values were calculated using the appropriate software.
pIC50 values (Co. No. means compound number; n.d. means not determined).

T1 sequence (O14744 whole entry): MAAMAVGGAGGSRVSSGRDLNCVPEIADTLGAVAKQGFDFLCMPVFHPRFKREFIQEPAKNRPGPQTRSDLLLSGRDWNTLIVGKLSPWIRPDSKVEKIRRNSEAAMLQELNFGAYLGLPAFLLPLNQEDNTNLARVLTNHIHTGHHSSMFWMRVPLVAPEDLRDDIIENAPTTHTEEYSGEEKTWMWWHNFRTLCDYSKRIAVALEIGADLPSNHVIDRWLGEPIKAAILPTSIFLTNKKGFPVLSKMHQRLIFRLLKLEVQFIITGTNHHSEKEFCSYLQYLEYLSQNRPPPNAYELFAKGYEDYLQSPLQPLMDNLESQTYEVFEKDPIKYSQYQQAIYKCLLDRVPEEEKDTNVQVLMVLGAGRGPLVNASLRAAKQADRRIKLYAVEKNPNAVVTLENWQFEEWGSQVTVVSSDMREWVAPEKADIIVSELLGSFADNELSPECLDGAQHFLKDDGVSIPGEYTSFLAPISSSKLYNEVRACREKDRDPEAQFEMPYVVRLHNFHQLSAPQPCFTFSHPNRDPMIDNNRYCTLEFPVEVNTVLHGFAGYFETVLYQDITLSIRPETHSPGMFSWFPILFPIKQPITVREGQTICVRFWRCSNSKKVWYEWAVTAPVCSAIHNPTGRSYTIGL
T1 sequence (Q9BQA1 whole entry partner): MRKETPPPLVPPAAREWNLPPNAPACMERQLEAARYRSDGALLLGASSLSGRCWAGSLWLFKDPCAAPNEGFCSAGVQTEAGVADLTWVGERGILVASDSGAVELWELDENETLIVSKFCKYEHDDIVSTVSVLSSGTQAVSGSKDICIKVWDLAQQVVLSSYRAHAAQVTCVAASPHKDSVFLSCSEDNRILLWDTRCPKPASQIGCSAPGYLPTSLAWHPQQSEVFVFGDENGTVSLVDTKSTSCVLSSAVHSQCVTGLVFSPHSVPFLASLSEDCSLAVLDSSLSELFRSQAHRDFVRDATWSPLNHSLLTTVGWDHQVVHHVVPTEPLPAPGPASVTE

SMILES | IC50 [1] | IC50 [2] [nM] | pIC50 Assay 2 [2]
NCC[C@H]1CCCN1C[C@H]1O[C@@H](n2cnc3c(N)ncnc32)[C@H](O)[C@@H]1O [Compound 58] | 724 nM | ~6920 | –
NCC[C@@H]1CCCN1C[C@H]1O[C@@H](n2cnc3c(N)ncnc32)[C@H](O)[C@@H]1O [Compound 59] | 44.7 nM | 2400 | –
NCC1CCCN1C[C@H]1O[C@@H](n2ccc3c(N)ncnc32)[C@H](O)[C@@H]1O (stereo partly shown) [Compound 60] | 28.8 nM | 1150 | –
Nc1nccc2c1ccn2[C@@H]1O[C@H](CN2CCCC23CCNCC3)[C@@H](O)[C@H]1O [Compound 61] | 129 nM | > 10000 | –
O[C@@H]1[C@H](O)[C@@H](CN2CCCC23CCNCC3)O[C@H]1n1cnc2cncnc21 [Compound 62] | 501 nM | > 10000 | –
CN1CCC2(CCCN2C[C@H]2O[C@@H](n3ccc4c(N)nc(Cl)nc43)[C@H](O)[C@@H]2O)CC1 [Compound 65] | 56.2 nM | 955 | –
CN1CCC2(CCCN2C[C@H]2O[C@@H](n3ccc4c(N)nccc43)[C@H](O)[C@@H]2O)CC1 [Compound 66] | 603 nM | 6760 | –
O[C@@H]1[C@H](O)[C@@H](CN2CC(F)(F)CC23CCN(C2CC2)CC3)O[C@H]1n1ccc2c(Cl)ncnc21 [Compound 67] | 1860 nM | ~6170 | –
Nc1ncnc2c([C@@H]3O[C@H](CN4CCCC45CCNCC5)[C@@H](O)[C@H]3O)cnn12 [Compound 68] | 229 nM | ~1950 | –
NC[C@@H]1CC(F)(F)CN1C[C@H]1O[C@@H](n2ccc3c(N)cccc32)[C@H](O)[C@@H]1O [Compound 71b] | 51.3 nM | 562 | –
NC[C@@H]1COCCN1C[C@H]1O[C@@H](n2ccc3c(N)ncnc32)[C@H](O)[C@@H]1O [Compound 72] | 53.7 nM | ~3550 | –
NC[C@H]1CC(F)(F)CN1C[C@H]1O[C@@H](n2ccc3c(N)ncnc32)[C@H](O)[C@@H]1O [Compound 73b] | 209 nM | 2450 | –
CN1CC2(CCCN(C[C@H]3O[C@@H](n4ccc5c(N)ncnc54)[C@H](O)[C@@H]3O)C2)C1 [Compound 74] | 37.2 nM and 35.5 nM | 372 | ~6.51
Nc1ncnc2c1ncn2[C@@H]1O[C@H](CN2CCC3(CCNCC3)C2)[C@@H](O)[C@H]1O [Compound 75] | 39800 nM | > 10000 | –
Nc1ncnc2c1ncn2[C@@H]1O[C@H](CN2CCCC23CCNCC3)[C@@H](O)[C@H]1O [Compound 76] | 89.1 nM and 32.4 nM and 24.5 nM | – | ~5.65 and ~5.97
Nc1ncnc2c1ncn2[C@@H]1O[C@H](CN2CCC3(CCCN3)C2)[C@@H](O)[C@H]1O (stereo partly shown) [Compound 78] | 2820 nM | > 10000 | –
Nc1ncnc2c1ncn2[C@@H]1O[C@H](CN2CC3(CCCNC3)C2)[C@@H](O)[C@H]1O [Compound 79] | 21400 nM | > 10000 | –
Nc1ncnc2c1ncn2[C@@H]1O[C@H](CN2CCCCC23CNC3)[C@@H](O)[C@H]1O [Compound 80] | 3310 nM | > 10000 | –
Nc1ncnc2c1ncn2[C@@H]1O[C@H](CN2CCC23CCNCC3)[C@@H](O)[C@H]1O [Compound 81] | 355 nM | 8130 | –
Nc1ncnc2c1ncn2[C@@H]1O[C@H](CN2CCCC3(CNC3)C2)[C@@H](O)[C@H]1O [Compound 82] | 126 nM | 2340 | –
Nc1ncnc2c1ncn2[C@@H]1O[C@H](CN2CC3(CCCN3)C2)[C@@H](O)[C@H]1O [Compound 83] | 44700 nM | > 10000 | –
Nc1ncnc2c1ncn2[C@@H]1O[C@H](CN2CC3(CCNC3)C2)[C@@H](O)[C@H]1O [Compound 84] | 77600 nM | > 10000 | –
Nc1ncnc2c1ncn2[C@@H]1O[C@H](CN2CCC3(CNC3)C2)[C@@H](O)[C@H]1O [Compound 86] | 417 nM | > 10000 | –
Nc1ncnc2c1ncn2[C@@H]1O[C@H](CN2CCC23CCNC3)[C@@H](O)[C@H]1O (stereo partly shown) [Compound 87] | 2400 nM | > 10000 | –
Nc1ncnc2c1ncn2[C@@H]1O[C@H](CN2CC3(CCN3)C2)[C@@H](O)[C@H]1O [Compound 88] | 46800 nM | > 10000 | –
Nc1ncnc2c1ncn2[C@@H]1O[C@H](CN2CCC23CNC3)[C@@H](O)[C@H]1O [Compound 89] | 2750 nM | > 10000 | –
CN1CCC2(CC1)CN(C[C@H]1O[C@@H](n3cnc4c(N)ncnc43)[C@H](O)[C@@H]1O)C2 [Compound 90] | 70800 nM | > 10000 | –
Nc1ncnc2c1ncn2[C@@H]1O[C@H](CN2CCCC23CNC3)[C@@H](O)[C@H]1O [Compound 91] | 1230 nM | > 10000 | –
CN1CC2(C1)CN(C[C@H]1O[C@@H](n3ccc4c(N)ncnc43)[C@H](O)[C@@H]1O)CCO2 [Compound 92] | 126 nM | ~1380 | –
Nc1ncnc2c1ccn2[C@@H]1O[C@H](CN2CCOC3(C2)CN(Cc2ccc(Cl)cc2)C3)[C@@H](O)[C@H]1O [Compound 93] | 3020 nM | ~2450 | –
